From PMC10603899, “Reproducibility and Robustness of a Liver Microphysiological System PhysioMimix LC12 under Varying Culture Conditions and Cell Type Combinations” (Bioengineering, 2023)
Counter-ions that a name gives are not always drawn. Like-named read-outs stand apart in the source and are kept apart here.

Columns and labels:
PHH (TF-HU8373) + THP-1 [1] = test: Midazolam metabolism (1′-OH MDZ formation) in PhysioMimix LC-12, PHH + THP-1 co-culture; type: in vitro ADME, human; settings: 5 µM MDZ
Experimental: Metabolic capacity was assessed across the various cell type conditions, including both types of hepatocytes. Midazolam (MDZ) was tested as a representative substrate for CYP3A4 [43]. Cells were treated with MDZ for up to 24 h on different days of culture, with sampling at 2, 6, and 24 h after treatment. The collected media was processed using high-performance liquid chromatography tandem mass spectrometry (HPLC-MS/MS) to determine the concentration of both the remaining parent compound (MDZ) and metabolites formed (1′-OH MDZ and 1′-OH MDZ glucuronide). We also tested the metabolism of equimolar mixtures (1 or 5 µM) of 20 pesticides that were previously used to evaluate the metabolic competence of different in vitro liver models. Cells were treated on day 6 of culture, and media were collected for analysis 48 h thereafter. Samples were analyzed using either gas chromatography (GC)-MS/MS or HPLC-MS/MS to determine whether parent molecule concentrations diminished, consistent with the metabolic activity of the cells.
The day when PHHs were seeded into PhysioMimix LC12 plates was defined as day 0 (Figure 1). PHHs were cultured in the PhysioMimix LC12 following the manufacturer’s protocols. PHHs were thawed into CHRM (CM7000, Thermo Fisher), centrifuged at 100× g for 10 min, resuspended in plating media, and then seeded into the PhysioMimix LC12 scaffold at a seeding density of 475,000–600,000 cells/chip. The flow was initiated at 1 µL/s.
For co-culture conditions, THP-1 monocytes and HMEC-1 endothelial cells were seeded either on day 0 or 1 at a seeding density of 60,000–160,000 cells/chip or 60,000 cells/chip, respectively. Primary KCs, HSCs, and LSECs were seeded either on day 0 or 1 at a seeding density of 100,000 cells/chip, 35,000 cells/chip, and 70,000–140,000 cells/chip, respectively. Cell seeding ratios were determined based on previous experiments or reports of the physiological cell ratios in the human liver. Media were collected and exchanged every 1–3 days by aspirating and replacing media from the media reservoir (1.8 mL/chip).
(§1) For evaluation of MDZ metabolism, cells were exposed on days 4–16 of culture to 5 µM MDZ (dissolved in methanol for the final concentration of 0.16% v/v). After drug addition, media were collected every 2, 6, and 24 h. After 24 h, the drug treatment media were replaced with fresh maintenance media. For the experiment with pesticide mixtures, we selected chemicals from the Agency for Toxic Substances and Disease Registry Substance Priority List, which contains compounds that are commonly detected at Superfund sites and are known to be hazardous to human health. A molar-equivalent mixture was created by combining all 20 pesticides and diluting them to a final concentration of 1 or 5 μM each in dimethyl sulfoxide (DMSO, final concentration 0.5% v/v). Media was collected 48 h after treatment for the analyses detailed below. For evaluation of immune-mediated toxicity with Trovafloxacin and LPS treatment, PHHs + THP-1 monocytes or PHHs + KCs were exposed on day 6 of culture to 25 or 100 µM of Trovafloxacin, with or without LPS. After 48 h, the drug treatment media were collected for biochemical assays detailed below.
After treatment with MDZ or pesticide mixtures (Supplemental Table S3), 50 µL media samples were mixed with 100 µL of 0.1 or 1 µM internal standard (Caffeine-13C3, C-082, Millipore Sigma; Supplemental Table S3) solution in acetonitrile on ice, respectively. Samples were vortexed and centrifuged (12,000× g, 10 min, room temperature) to allow for protein precipitation. The supernatant was collected from each sample, dried under vacuum, and reconstituted in 50 µL aqueous mobile phase. The reconstituted samples were transferred to glass autosampler vials with 200 µL inserts and stored at −20 °C prior to HPLC-MS/MS analysis. […]

PHH (TF-HU8373) [2] = test: Midazolam metabolism (1′-OH MDZ formation) in 96-well plate, PHH; type: in vitro ADME, human; settings: day 2, incubation 24 h
Experimental: For the PHH 2D model, 96-well plates were first coated with 200 μg/mL collagen I (CB354249, Corning Inc.) and 50 μg/mL fibronectin (F1141, Sigma-Aldrich, St. Louis, MO, USA) and incubated at 37 °C, 5% CO2 for 1 h. Thawed PHHs were collected by centrifugation (100× g, 10 min), resuspended in plating media, and seeded at a density of 50,000–60,000 cells/well. After incubation overnight, the media were changed to maintenance media. The total well volume was 100 μL, and plates were incubated at 37 °C, 5% CO2, with media refreshed every 1–2 days.
After drug addition, media were collected every 2, 6, and 24 h. After 24 h, the drug treatment media were replaced with fresh maintenance media. For the experiment with pesticide mixtures, we selected chemicals from the Agency for Toxic Substances and Disease Registry Substance Priority List, which contains compounds that are commonly detected at Superfund sites and are known to be hazardous to human health. A molar-equivalent mixture was created by combining all 20 pesticides and diluting them to a final concentration of 1 or 5 μM each in dimethyl sulfoxide (DMSO, final concentration 0.5% v/v). Media was collected 48 h after treatment for the analyses detailed below. […]

PHH (TF-HU8373) + THP-1 [3] = test: Midazolam metabolism (1′-OH MDZ formation) in 96-well plate, PHH + THP-1; type: in vitro ADME, human; settings: PHH + THP-1, day 2, incubation 24 h
PHH (various donors) [4] = system: PHH (various donors); design: method as in PMID 27338863; settings: Suspension, day 0 of culture, incubation 0.17 h; cited from earlier work
PHH (various donors) [5] = system: PHH (various donors); design: method as in PMID 25068923; settings: LiverChip, day 4 of culture, estimated from figures, cited from earlier work
PHH (TF-HU8373) [6] = test: Midazolam metabolism (1′-OH MDZ formation) in PhysioMimix LC-12, PHH monoculture; settings: 5 µM MDZ; for 1′-OH MDZ Formed, Mean ± S.D. / 1′-OH MDZ Formed, Median: PhysioMimix LC-12, PHH
[7] = system: PHHs (donor HU8373) + THP-1 cells; test: Immune-mediated toxicity, trovafloxacin ± LPS in PhysioMimix LC12, PHH + THP-1; type: cell-based; settings: 48 h
Experimental: as §1
(§2) Cell culture media was collected every time media was exchanged (Figure 1) and stored frozen at −80 °C until analyses for various biomarkers, including albumin, urea, lactate dehydrogenase (LDH), and human interleukin-6 (IL-6). The ELISA assays for albumin (E88-129, Bethyl Laboratories, Montgomery, TX, USA), urea (EIABUN, ThermoFisher), LDH (ab102526, Abcam, Cambridge, UK), and IL-6 (D6050, R&D Systems) were conducted using manufacturer’s instructions. For CYP3A4 activity, the P450 Glo 3A4 with Luciferin-IPA assay (V9001, Promega, Madison, WI, USA) was used; this is a live cell assay, and it was conducted according to the manufacturer’s instructions as follows. The Luciferin-IPA substrate was diluted 1:1000 in maintenance media and added to chips or wells 1 h prior to reading luminescence using a plate reader (SpectraMax iD3, Molecular Devices, San Jose, CA, USA). After the assay, the media was replaced.
(§3) The last series of experiments was conducted to examine whether a co-culture of PHHs and NPCs in the PhysioMimix LC12 could model immune-mediated effects. […] We examined two conditions of use: HU8373 PHH with either THP-1 cells or Kupffer cells (Figure 8). Treatments (25 or 100 μM trovafloxacin) were added on […] with or without LPS (1 μg/mL) (Figure 1H) to replicate a well-established model of immune-mediated hepatotoxicity. We examined LDH leakage as a marker of cytotoxicity, CYP3A4 activity, and IL-6 secretion into the media as a marker of pro-inflammatory response. […] Few effects on CYP3A4 were observed, albeit inter-experimental variability was high (Figure 8B).
Figure 8 Immune-mediated toxicity in the PhysioMimix LC12. Changes in LDH, CYP3A4, and IL-6 after 48 h trovafloxacin exposure with and without LPS in the PhysioMimix LC12 seeded with PHHs (donor HU8373) and non-parenchymal cells (THP-1 cells or Kupffer cells). (A) LDH leakage, (B) CYP3A4 activity, and (C) IL-6 release. Endpoints were normalized to the mean of the pretreatment samples (day 6 of the experiment). Data are plotted as box (interquartile range) and whiskers (min-max) with all individual values shown (n = 2–12). […] Brackets indicate statistical significance between groups at p < 0.05 by two-way ANOVA with Tukey’s multiple comparisons test.

[8] = system: PHHs (donor HU8373) + Kupffer cells; test: Immune-mediated toxicity, trovafloxacin ± LPS in PhysioMimix LC12, PHH + Kupffer cells; type: cell-based; settings: 48 h
Experimental: as §1, §2, §3
Figure 8 Immune-mediated toxicity in the PhysioMimix LC12. […]

[9] = PhysioMimix LC-12, PHH + THP-1, day 6, incubation 2 h
[10] = PhysioMimix LC-12, PHH + THP-1, day 6, incubation 24 h
[11] = PhysioMimix LC-12, PHH + THP-1, day 12, incubation 24 h
[12] = 25 and 100 μM trovafloxacin + LPS (1 μg/mL)
[13] = 25 or 100 μM trovafloxacin with or without LPS (1 μg/mL)

Question: With OCc1ncc2n1-c1ccc(Cl)cc1C(c1ccccc1F)=NC2 [1′-OH-midazolam, 1-hydroxymidazolam] as the compound, how does the “1′-OH MDZ Formed, Mean ± S.D.” value (PHH (TF-HU8373) + THP-1 [1]; [9]) read?
Answer: 2.54 ± 1.64 pmol/min/1 M Hep.

Question: And the “1′-OH MDZ Formed, Median” value (PHH (TF-HU8373) + THP-1 [1]; [9])?
Answer: 2.11 pmol/min/1 M Hep.

Question: What about the “1′-OH MDZ Formed, Mean ± S.D.” value (PHH (TF-HU8373) + THP-1 [1]; [10]) of the same compound?
Answer: 0.836 ± 0.556 pmol/min/1 M Hep.

Question: What about the “1′-OH MDZ Formed, Median” value (PHH (TF-HU8373) + THP-1 [1]; [10]) of the same compound?
Answer: 0.997 pmol/min/1 M Hep.

Question: What about the “1′-OH MDZ Formed, Mean ± S.D.” value (PHH (TF-HU8373) + THP-1 [1]; [11]) of the same compound?
Answer: 0.971 ± 0.910 pmol/min/1 M Hep.

Question: What about the “1′-OH MDZ Formed, Median” value (PHH (TF-HU8373) + THP-1 [1]; [11]) of the same compound?
Answer: 0.933 pmol/min/1 M Hep.

Question: And the “1′-OH MDZ Formed, Mean ± S.D.” value (PHH (TF-HU8373) [2])?
Answer: 0.163 ± 0.064 pmol/min/1 M Hep.

Question: And the “1′-OH MDZ Formed, Median” value (PHH (TF-HU8373) [2])?
Answer: 0.189 pmol/min/1 M Hep.

Question: And the “1′-OH MDZ Formed, Mean ± S.D.” value (PHH (TF-HU8373) + THP-1 [3])?
Answer: 0.088 ± 0.077 pmol/min/1 M Hep.

Question: And the “1′-OH MDZ Formed, Median” value (PHH (TF-HU8373) + THP-1 [3])?
Answer: 0.061 pmol/min/1 M Hep.

Question: What about the “1′-OH MDZ Formed, Mean ± S.D.” value (PHH (various donors) [4]) of the same compound?
Answer: 100 ± 106 pmol/min/1 M Hep.

Question: And the “1′-OH MDZ Formed, Median” value (PHH (various donors) [4])?
Answer: 63.7 pmol/min/1 M Hep.

Question: What about the “1′-OH MDZ Formed, Mean ± S.D.” value (PHH (various donors) [5]; incubation 2 h) of the same compound?
Answer: 4.55 ± 2.27 pmol/min/1 M Hep.

Question: And the “1′-OH MDZ Formed, Mean ± S.D.” value (PHH (various donors) [5]; incubation 24 h)?
Answer: 0.216 ± 0.054 pmol/min/1 M Hep.

Question: And the “1′-OH MDZ Formed, Mean ± S.D.” value (PHH (TF-HU8373) [6]; day 6, incubation 2 h)?
Answer: 2.72 ± 1.75 pmol/min/1 M Hep.

Question: What about the “1′-OH MDZ Formed, Median” value (PHH (TF-HU8373) [6]; day 6, incubation 2 h) of the same compound?
Answer: 2.33 pmol/min/1 M Hep.

Question: And the “1′-OH MDZ Formed, Mean ± S.D.” value (PHH (TF-HU8373) [6]; day 6, incubation 24 h)?
Answer: 0.610 ± 0.403 pmol/min/1 M Hep.

Question: And the “1′-OH MDZ Formed, Median” value (PHH (TF-HU8373) [6]; day 6, incubation 24 h)?
Answer: 0.561 pmol/min/1 M Hep.

Question: What about the “1′-OH MDZ Formed, Mean ± S.D.” value (PHH (TF-HU8373) [6]; day 12, incubation 24 h) of the same compound?
Answer: 0.753 ± 0.612 pmol/min/1 M Hep.

Question: And the “1′-OH MDZ Formed, Median” value (PHH (TF-HU8373) [6]; day 12, incubation 24 h)?
Answer: 0.649 pmol/min/1 M Hep.

Question: With Cc1ncc2n1-c1ccc(Cl)cc1C(c1ccccc1F)=NC2 [midazolam, Midazolam] as the compound, how does the “Midazolam metabolism over time in culture” value (PHH (TF-HU8373) [6]; PhysioMimix LC12, HU8373 PHH, different cell combinations, 24 h) read?
Answer: remained consistent over time

Question: For N[C@@H]1[C@H]2CN(c3nc4c(cc3F)c(=O)c(C(=O)O)cn4-c3ccc(F)cc3F)C[C@@H]12 [trovafloxacin, Trovafloxacin mesylate], which “IL-6 secretion into the media” value ([7]; 100 μM trovafloxacin) is on record?
Answer: Increases

Question: And the “Potentiating effect of LPS on trovafloxacin (IL-6 release)” value [7, 12]?
Answer: not THP-1 cells

Question: What about the “Effect on CYP3A4 activity” value [7, 13] of the same compound?
Answer: Few effects

Question: And the “LDH leakage as compared to pre-treatment levels” value [7, 13]?
Answer: Significant increases

Question: And the “IL-6 secretion into the media” value ([8]; 100 μM trovafloxacin)?
Answer: Increases

Question: And the “Potentiating effect of LPS on trovafloxacin (IL-6 release)” value [8, 12]?
Answer: significant potentiating effect

Question: And the “Effect on CYP3A4 activity” value [8, 13]?
Answer: Few effects

Question: With Lipopolysaccharide [LPS] as the compound, how does the “IL-6 secretion into the media” value ([7]; LPS alone (1 μg/mL)) read?
Answer: Increases

Question: And the “IL-6 secretion into the media” value ([8]; LPS alone (1 μg/mL))?
Answer: Increases
